As usually defined, the MIC is the smallest concentration in the dilution series that meets the test's criterion for growth inhibition.

The values that follow come from patent publication US11464749B2, “Bismuth-thiol compositions and methods of use” (Microbion Corporation, priority 2018, dated 2022).

Each structure is given as a SMILES string. ≈ marks a conversion by molar mass, not a printed value. Where “and” joins values, the source holds several entries; their conditions need not be identical. Identical values can stand only once. Like-named read-outs stand apart in the source and are kept apart here.

The subject of one data set is B. cepacia. Nature of the data set: FIC checkerboard assay. The format is cell-based. The following applies: Burkholderia cepacia, read-out: Drug B MIC.
Data set [1] can be described thus: Particle size distribution of exposure aerosols (In-Tox Mercer Impactor). The note with it: rat efficacy study exposure atmospheres.
A further data set deals with Burkholderia spp. Description: organism not typed. The format is cell-based. The following applies: read-out: Drug B MIC.
Data set [2] relates to P. aeruginosa. Description: FIC checkerboard assay. The format is cell-based. The note with it: Pseudomonas aeruginosa, read-out: Drug B MIC.
The next data set concerns B. cenocepacia. Description: FIC checkerboard assay. Format: cell-based. The note with it: for MIC: Burkholderia cenocepacia, read-out: Drug B MIC.
The subject of data set [3] is C. parapsilosis. The note with it: C. parapsilosis MMX 2323 (ATCC 22019), cited from earlier work.
The next data set concerns C. glabrata. Nature of the data set: Broth microdilution MIC, yeast (Example 11). The format is cell-based. The note with it: FLU^R. A general note: Dilution methods test growth across graded concentrations, often in twofold steps.
For data set [4], the system named is C. parapsilosis. Nature of the data set: Broth microdilution MIC, yeast (Example 11). The format is cell-based.
In another data set the test system is C. tropicalis. Description: Broth microdilution MIC, yeast (Example 11). Format: cell-based. The following applies: FLU^R.
The subject of the next data set is C. albicans. Description: Broth microdilution MIC, yeast (Example 11). Format: cell-based. The following applies: Sensitive.
A further data set has as its system M. abscessus complex. Nature of the data set: MIC against CF bacterial strains (Example 5). Format: cell-based, Mycobacterium abscessus. The note with it: Mycobacteroides abscessus, read-out: MIC. The protocol:
(§1) A range of CF-isolated strains of Mycobacterium avium and Mycobacterium abscessus were included; which allows for understanding of the activity against non-tubercular Mycobacteria (NTM). Two distinct bismuth-thiol compounds were evaluated, including BisEDT and BisBDT. […] The CF-isolates of greater clinical relevance, including both M abscessus spp. and Burkholderia spp., were both consistently found to be much more susceptible to BisEDT and BisBDT.

The test system of the next data set is S. aureus ATCC 29213. The following applies: control strain ATCC 29213; per CLSI M100-S24 or provided by Microbion; cited from earlier work.
Data set [5] deals with B. cenocepacia (B cepacia complex). Nature of the data set: MIC against CF bacterial strains (Example 5).
For data set [6], the system named is B. multivorans (cepacia complex). Nature of the data set: MIC against CF bacterial strains (Example 5). Format: cell-based. The following applies: Burkholderia multivorans, strain BC5b. The protocol: as §1
Data set [7] concerns B. cepacia (cepacia complex). Nature of the data set: MIC against CF bacterial strains (Example 5). Format: cell-based. The following applies: Burkholderia cepacia, strain BC17. How it is done:
as §1

Another data set relates to Achromobacter spp. Nature of the data set: MIC against CF bacterial strains (Example 5).
The test system of the next data set is S. maltophilia. Nature of the data set: MIC against CF bacterial strains (Example 5). The following applies: Stenotrophomonas maltophilia.
Data set [8] deals with P. aeruginosa. Description: MIC against CF bacterial strains (Example 5). The following applies: Pseudomonas aeruginosa.

Consider `NC[C@H]1O[C@H](O[C@H]2[C@H](O)[C@@H](O[C@H]3O[C@H](CO)[C@@H](O)[C@H](N)[C@H]3O)[C@H](N)C[C@@H]2N)[C@H](N)C[C@@H]1O` [Tobramycin, reference compound], for which the minimum inhibitory concentration (MIC) in the data set with B. cepacia (B. cepacia 546, Tobramycin alone (checkerboard with BisEDT)) was 32 µg/mL; in the data set with B. cepacia (B. cepacia 1793, Tobramycin alone (checkerboard with BisEDT)) it was 16 µg/mL; in the data set on Burkholderia spp., greater than 256 µg/mL; in the data set with P. aeruginosa [2] (P. aeruginosa 6977, Tobramycin alone (checkerboard with BisEDT)), 128 µg/mL; in the data set on P. aeruginosa [2] (P. aeruginosa 7745, Tobramycin alone (checkerboard with BisEDT)), 0.5 µg/mL; with P. aeruginosa [2] (P. aeruginosa 8798, Tobramycin alone (checkerboard with BisEDT)), 0.016 µg/mL. The MIC in the data set with P. aeruginosa [2] (P. aeruginosa 9108, Tobramycin alone (checkerboard with BisEDT)) came out at 0.5 µg/mL; in the data set on P. aeruginosa [2] (Tobramycin alone, FIC panel with BisEDT, P. aeruginosa 6322), 128 µg/mL; in the data set with B. cenocepacia (B. cenocepacia 548, Tobramycin alone (panel with BisEDT)), 32 µg/mL; with B. cenocepacia (B. cenocepacia 813, Tobramycin alone (panel with BisEDT)) it was 256 µg/mL. Moreover, in [1], the “MMAD of exposure aerosol” value is reported as 2.81 μm. In addition, the FICB with B. cenocepacia (B. cenocepacia 548, FIC of Tobramycin in combination with BisEDT, per checkerboard row) is 0.5; in the data set on B. cenocepacia (B. cenocepacia 813, FIC of Tobramycin in combination with BisEDT, per checkerboard row), 0.5 and 1. Further, the MICB in the data set with B. cenocepacia (B. cenocepacia 548, MIC of Tobramycin in combination with BisEDT, per checkerboard row) is 8 µg/mL and 16 µg/mL.
As to `OC(Cn1cncn1)(Cn1cncn1)c1ccc(F)cc1F` [fluconazole, Fluconazole, reference compound], the “MIC, CLSI QC range” value in the data set on C. parapsilosis [3] (24 hr) is 0.5 to 4 µg/mL; in the data set with C. parapsilosis [3] (48 hr), 1 to 4 µg/mL. Besides, the MIC in the data set on C. glabrata (Nakaseomyces glabratus, 24 h, C. glabrata MMX 7086, 24 hr, read-out: MIC) is 32 µg/mL (≈ 104 µM); with C. glabrata (Nakaseomyces glabratus, 24 h, C. glabrata MMX 7318, 24 hr, read-out: MIC), greater than 64 µg/mL; in the data set on C. glabrata (Nakaseomyces glabratus, 48 h, C. glabrata MMX 7086, 48 hr, read-out: MIC) it was 64 µg/mL (≈ 209 µM); with C. glabrata (Nakaseomyces glabratus, 48 h, C. glabrata MMX 7318, 48 hr, read-out: MIC) it was greater than 64 µg/mL; with C. parapsilosis [4] (Lodderomyces parapsilosis, 24 h, C. parapsilosis MMX 7370, FLU^R, 24 hr, read-out: MIC (converted)), 32 µg/mL (≈ 104 µM); in the data set with C. parapsilosis [4] (Lodderomyces parapsilosis, 24 h, C. parapsilosis MMX 7555, FLU^R, 24 hr, read-out: MIC (converted)), 32 µg/mL (≈ 104 µM). In addition, the MIC with C. parapsilosis [4] (Lodderomyces parapsilosis, 48 h, C. parapsilosis MMX 7370, FLU^R, 48 hr, read-out: MIC (converted)) was 32 µg/mL (≈ 104 µM); with C. parapsilosis [4] (Lodderomyces parapsilosis, 48 h, C. parapsilosis MMX 7555, FLU^R, 48 hr, read-out: MIC (converted)), 64 µg/mL (≈ 209 µM); in the data set with C. parapsilosis [4] (Lodderomyces parapsilosis, ATCC22019, 24 h, C. parapsilosis MMX 2323 (ATCC 22019), QC, 24 hr, read-out: MIC (converted)) it was 2 µg/mL (≈ 6.53 µM); with C. parapsilosis [4] (Lodderomyces parapsilosis, ATCC22019, 48 h, C. parapsilosis MMX 2323 (ATCC 22019), QC, 48 hr, read-out: MIC (converted)), 2 µg/mL (≈ 6.53 µM); in the data set on C. tropicalis (Candida tropicalis, 24 h, C. tropicalis MMX 7247, 24 hr, read-out: MIC), 64 µg/mL (≈ 209 µM); with C. tropicalis (Candida tropicalis, 24 h, C. tropicalis MMX 7248, 24 hr, read-out: MIC), 32 µg/mL (≈ 104 µM). Also, the minimum inhibitory concentration (MIC) is 64 µg/mL (≈ 209 µM) in the data set on C. tropicalis (Candida tropicalis, 24 h, C. tropicalis MMX 7360, 24 hr, read-out: MIC); greater than 64 µg/mL in the data set on C. tropicalis (Candida tropicalis, 48 h, C. tropicalis MMX 7247, 48 hr, read-out: MIC); greater than 64 µg/mL in the data set on C. tropicalis (Candida tropicalis, 48 h, C. tropicalis MMX 7248, 48 hr, read-out: MIC); greater than 64 µg/mL with C. tropicalis (Candida tropicalis, 48 h, C. tropicalis MMX 7360, 48 hr, read-out: MIC); 0.5 µg/mL (≈ 1.63 µM) in the data set on C. albicans (Candida albicans, 24 h, C. albicans MMX 7039, 24 hr, read-out: MIC); 0.25 µg/mL (≈ 0.816 µM) in the data set with C. albicans (Candida albicans, 24 h, C. albicans MMX 7055, 24 hr, read-out: MIC). Also, the MIC was found to be 0.5 µg/mL (≈ 1.63 µM) with C. albicans (Candida albicans, 48 h, C. albicans MMX 7039, 48 hr, read-out: MIC) and 0.5 µg/mL (≈ 1.63 µM) in the data set with C. albicans (Candida albicans, 48 h, C. albicans MMX 7055, 48 hr, read-out: MIC).
Turning to `NCC[C@H](O)C(=O)N[C@@H]1C[C@H](N)[C@@H](O[C@H]2O[C@H](CN)[C@@H](O)[C@H](O)[C@H]2O)[C@H](O)[C@H]1O[C@H]1O[C@H](CO)[C@@H](O)[C@H](N)[C@H]1O` [Amikacin, reference compound], the MIC in the data set with B. cepacia (B. cepacia 546, Amikacin alone (checkerboard with BisEDT)) is 64 µg/mL; with B. cepacia (B. cepacia 1793, Amikacin alone (panel with BisEDT)), 32 µg/mL; in the data set on M. abscessus complex (AMT0130-8, M abscessus/massiliense complex) it was 16 µg/mL (≈ 27.3 µM); in the data set on M. abscessus complex (AMT153-9, M abscessus/massiliense complex), 32 µg/mL (≈ 54.6 µM); with M. abscessus complex (AMT0493-2, M abscessus/massiliense complex, Amikacin resistant) it was greater than 64 µg/mL; in the data set with M. abscessus complex (ATCC19977, ATCC 19977, M abscessus/massiliense complex, Macrolide resistant (inducible)), 8 µg/mL (≈ 13.7 µM). Besides, the MIC is greater than 64 µg/mL in [5] (Burkholderia cenocepacia); greater than 64 µg/mL in data set [5] (strain AU197); greater than 256 µg/mL in the data set with Burkholderia spp.; greater than 64 µg/mL in data set [6]; greater than 64 µg/mL in [7]; greater than 64 µg/mL against Achromobacter spp.. The MIC against Achromobacter spp. (Achromobacter) was determined as 64 µg/mL (≈ 109 µM); with P. aeruginosa [2] (Amikacin alone, FIC panel with BisEDT, P. aeruginosa 6322) it was 64 µg/mL; in the data set with P. aeruginosa [2] (P. aeruginosa 6977, Amikacin alone (checkerboard with BisEDT)) it was 16 µg/mL; in the data set with P. aeruginosa [2] (P. aeruginosa 7745, Amikacin alone (checkerboard with BisEDT)), 4 µg/mL; in the data set with P. aeruginosa [2] (P. aeruginosa 8798, Amikacin alone (checkerboard with BisEDT)) it was 128 µg/mL; in the data set on P. aeruginosa [2] (P. aeruginosa 9108, Amikacin alone (checkerboard with BisEDT)), 4 µg/mL. Also, the MIC in the data set on S. maltophilia is 64 µg/mL (≈ 109 µM); in the data set with B. cenocepacia (B. cenocepacia 548, Amikacin alone (panel with BisEDT)), 128 µg/mL; in the data set with B. cenocepacia it was greater than 256 µg/mL; in the data set with P. aeruginosa [8], 16 µg/mL (≈ 27.3 µM); with P. aeruginosa [8] (strain AGR14, Multi-drug resistant), greater than 64 µg/mL; in the data set with P. aeruginosa [8] (strain MR14, Multi-drug resistant), greater than 64 µg/mL. Also, the “Expected MIC: goal (acceptable range)” value with S. aureus ATCC 29213 is listed as 2 (1-4) mcg/mL. Moreover, the FICB with B. cenocepacia (B. cenocepacia 548, FIC of Amikacin in combination with BisEDT, per checkerboard row) was 0.25 and 0.5; in the data set on B. cenocepacia (B. cenocepacia 813, FIC of Amikacin in combination with BisEDT, per checkerboard row) it was 0.5 and 1.
Consider `C[C@@H]1[C@H](O)[C@@H](C)/C=C/C=C/C=C/C=C/C=C/C=C/C=C/[C@H](O[C@@H]2O[C@H](C)[C@@H](O)[C@H](N)[C@@H]2O)C[C@@H]2O[C@](O)(C[C@@H](O)C[C@@H](O)[C@H](O)CC[C@@H](O)C[C@@H](O)CC(=O)O[C@H]1C)C[C@H](O)[C@H]2C(=O)O` [Amphotericin B], for which the “MIC, CLSI QC range” value in the data set on C. parapsilosis [3] (48 hr) is 0.5 to 4 µg/mL. Moreover, the MIC against C. glabrata (C. glabrata MMX 7086, 24 hr) worked out at 0.5 µg/mL (≈ 0.541 µM); against C. glabrata (C. glabrata MMX 7086, 48 hr) it was 1 µg/mL (≈ 1.08 µM); against C. glabrata (C. glabrata MMX 7318, 24 hr), 0.5 µg/mL (≈ 0.541 µM); in the data set with C. glabrata (C. glabrata MMX 7318, 48 hr) it was 1 µg/mL (≈ 1.08 µM); with C. parapsilosis [4] (C. parapsilosis MMX 2323 (ATCC 22019), QC, 24 hr), 0.5 µg/mL (≈ 0.541 µM); in the data set with C. parapsilosis [4] (C. parapsilosis MMX 2323 (ATCC 22019), QC, 48 hr), 1 µg/mL (≈ 1.08 µM). In addition, the MIC in the data set on C. parapsilosis [4] (C. parapsilosis MMX 7370, FLU^R, 24 hr) stood at 0.5 µg/mL (≈ 0.541 µM); in the data set on C. parapsilosis [4] (C. parapsilosis MMX 7370, FLU^R, 48 hr), 1 µg/mL (≈ 1.08 µM); in the data set with C. tropicalis (C. tropicalis MMX 7247, 24 hr), 0.5 µg/mL (≈ 0.541 µM); against C. tropicalis (C. tropicalis MMX 7247, 48 hr), 1 µg/mL (≈ 1.08 µM); against C. tropicalis (C. tropicalis MMX 7248, 24 hr) it was 0.5 µg/mL (≈ 0.541 µM); against C. tropicalis (C. tropicalis MMX 7248, 48 hr), 1 µg/mL (≈ 1.08 µM). The minimum inhibitory concentration (MIC) was 0.25 µg/mL (≈ 0.271 µM) in the data set on C. albicans (C. albicans MMX 7055, 24 hr) and 0.5 µg/mL (≈ 0.541 µM) against C. albicans (C. albicans MMX 7055, 48 hr).
